Measurements published in article PMC5874726, “Comparison Study of Two Differently Clicked ^18F-Folates—Lipophilicity Plays a Key Role” (Pharmaceuticals, 2018).
Like-named read-outs stand apart in the source and are kept apart here.

Tests used:
[1] = LogD at pH 7.4 via shake-flask method (octanol/PBS); format: physicochemical; conditions: pH 7.4, shake-flask
Experimental: The lipophilicity was determined by shake flask method in an octanol/PBS mixture. Table 1 gives an overview of logD values for ^18F-Alakyne and ^18F-Ala-folate as well as for ^18F-DBCO and ^18F-DBCO-folate. […] The reduced lipophilicity is expected to be an indicator for less non-specific background signals and a higher renal clearance rate.

[2] = Stability in human serum albumin at 37 °C; conditions: 2 h
Experimental: The in vitro stability was assessed in human serum albumin at 37 °C.
For testing the stability, 200 µL of ^18F-DBCO-folate or ^18F-Ala-folate (ca. 4 MBq) were incubated at 37 °C in 500 µL human serum albumin. After predetermined time points plasma proteins were precipitated with 600 µL ice-cold acetonitrile followed by centrifugation (10,000 rpm, 10 min). An aliquot of the supernatant was injected into an analytical radio-HPLC.

[3] = system: FR-positive KB cells; test: Internalization studies in FR-positive KB cells; format: cell-based, human; conditions: 5 nM, 37 °C, 1 h
Experimental: (§1) Two different temperatures (4 °C for receptor binding, 37 °C for receptor binding and internalization) and two different concentrations were assessed. […] Both radiofolates show a concentration as well as temperature depended increase of activity in the FR positive cells. […] This effect is not fully understood, but we presume the high lipophilicity in combination with the increased concentration being responsible for this high non-specific binding. […] Thus, about 90% of ^18F-DBCO-folate remained in solution, which is ideal for such a radiotracer assay set-up (see supporting information for pie chart of activity distribution, Figure S6). For ^18F-Ala-folate the overall receptor-bound and internalized fractions are similar to ^18F-DBCO-folate (see supporting information for pie chart of activity distribution, Figure S7).
As folate-receptor positive control, KB cells (derived from human cervical carcinoma; obtained from German Collection of Microorganisms and Cell Cultures), and OC316 cells (derived from human ovarian adenocarcinoma) as negative control were used. For FACS analysis, data of both cell lines see supporting information Figure S5. The cells were cultured in folate deficient RPMI 1640 medium containing 10% FCS, 1% penicillin-streptomycin and HEPES buffer (10 mM, 5 mL) grown at 37 °C in a humidified atmosphere containing 5% CO2. […] To determine the internalized fraction of both new ^18F-folate derivatives, different concentrations (1 and 5 nM) of the labeled agents were incubated with one million KB or OC316 cells at 4 °C and 37 °C. […] After 1h, the supernatant was removed, cells washed with PBS and with an acetate buffer (pH 3).

[4] = system: FR-negative OC316 cells; test: Internalization studies in FR-negative OC316 cells; format: cell-based, human; conditions: blocked KB cells and FR-negative OC316 cells
Experimental: as §1
As folate-receptor positive control, KB cells (derived from human cervical carcinoma; obtained from German Collection of Microorganisms and Cell Cultures), and OC316 cells (derived from human ovarian adenocarcinoma) as negative control were used. For FACS analysis, data of both cell lines see supporting information Figure S5. The cells were cultured in folate deficient RPMI 1640 medium containing 10% FCS, 1% penicillin-streptomycin and HEPES buffer (10 mM, 5 mL) grown at 37 °C in a humidified atmosphere containing 5% CO2. […]

[5] = system: healthy balb/c mice; test: Ex vivo biodistribution in healthy balb/c mice; conditions: healthy balb/c mice, 60 min p.i.
Source text: (§2) All animal experiments were approved by the local ethical committee (permission no. 23177-07/G15-1-033). Balb/c and balb/c nude (Balb/c AnNRj-Foxn1nu) mice were kept on a folate-deficient rodent diet to reduce their blood level of folate to one found in humans. After 7 days of acclimatization, human KB tumor cells (2.5 x 10^6 cells in PBS) were inoculated in the right shoulder of each balb/c nude mouse. All in vivo treatments and imaging experiments were done under isoflurane anesthesia. Eleven or twelve days after inoculation, animals were intravenously injected with ^18F-DBCO-Folate and ^18F-Ala-Folate (5–8 MBq, 100–200 µL) via a lateral tail vein. […] PET/MRI-studies were performed on a nanoScan PET/MRI (Mediso, Budapest, Hungary). First MRI scans (Material Map for co-registration of the PET scan; 3D; GRE-EXT, FOV; slice thickness: 0.6 mm; TE: 2 ms; TR: 15 ms; flip angle: 25 deg) were acquired and then either a dynamic scan over 60 min starting with injection of the radiotracer or a static scan for 10 min after 50 min p.i. were performed. All mice, which underwent ex vivo biodistribution, were scanned first. Afterwards co-registered PET/MR images were analyzed via PMOD (version 3.6) and Inveon Research Workplace (version 4.2). For ex vivo biodistribution studies mice were euthanized 60 min p.i. and organs of interest were dissected, weighed, and measured in a γ-counter (PerkinElmer 2470 Wizard2, Perkin Elmer, Rodgau, Germany). The incorporated radioactivity was expressed as percentage of injected dose per gram of tissue (% ID/g).

[6] = system: KB-tumor bearing mice; test: Ex vivo biodistribution in KB-tumor bearing mice; conditions: 60 min p.i.; for uptake Appendix / uptake Blood / uptake Heart / uptake Inguinal lymph nodes / uptake Intestines (empty) / uptake Left kidney / uptake Liver / uptake Lung / uptake Muscle / uptake Pancreas / uptake Right kidney / uptake Spleen / uptake Stomach (empty) / uptake Tumor: KB xenograft mice
Source text: as §2

[7] = system: KB tumor-bearing mice; test: µPET imaging in KB tumor-bearing mice; format: in vivo, mouse
Source text: as §2

[8] = design: method as in doi:10.1039/C5MD00508F; conditions: pH 7.4, shake-flask; cited from earlier work
[9] = blocked with 100 µg native folic acid
[10] = blockade with 100 µg native folic acid

## C#CCNC(C[18F])C(=O)O (stereo not drawn) [^18F-Alakyne]
[1]
  logD7.4 Value: −1.18 ± 0.03

## Nc1nc2ncc(CNc3ccc(C(=O)NC(CCC(=O)NCCOCCOCCOCCn4nnc5c4-c4ccccc4CN(C(=O)CCNC(=O)CCOCCOCCOCC[18F])c4ccccc4-5)C(=O)O)cc3)nc2c(=O)[nH]1 (stereo not drawn) [^18F-DBCO-folate]
[2]
  still intact after incubation: > 90%
[3]
  fraction of tracer internalized: about 3%
  fraction of tracer receptor bound: about 7%
  fraction of tracer remained in solution: about 90%
[4]
  non-specific binding: distinct non-specific binding
[5]
  uptake Blood: 0.08 ± 0.01 %ID/g tissue
  uptake Heart: 0.09 ± 0.01 %ID/g tissue
  uptake Inguinal lymph nodes: 0.18 ± 0.08 %ID/g tissue
  uptake Intestines (empty): 0.87 ± 0.57 %ID/g tissue
  uptake Left kidney: 3.90 ± 0.38 %ID/g tissue
  uptake Liver: 0.24 ± 0.02 %ID/g tissue
  uptake Lung: 0.35 ± 0.27 %ID/g tissue
  uptake Muscle: 0.06 ± 0.01 %ID/g tissue
  uptake Pancreas: 0.08 ± 0.01 %ID/g tissue
  uptake Right kidney: 3.99 ± 0.37 %ID/g tissue
  uptake Spleen: 0.07 ± 0.02 %ID/g tissue
[5]; [9]
  uptake Blood: 0.12 ± 0.05 %ID/g tissue
  uptake Heart: 0.11 ± 0.06 %ID/g tissue
  uptake Inguinal lymph nodes: 0.10 ± 0.08 %ID/g tissue
  uptake Intestines (empty): 0.33 ± 0.22 %ID/g tissue
  uptake Left kidney: 0.40 ± 0.07 %ID/g tissue
  uptake Liver: 0.33 ± 0.08 %ID/g tissue
  uptake Lung: 0.36 ± 0.11 %ID/g tissue
  uptake Muscle: 0.07 ± 0.05 %ID/g tissue
  uptake Pancreas: 0.09 ± 0.05 %ID/g tissue
  uptake Right kidney: 0.38 ± 0.07 %ID/g tissue
  uptake Spleen: 0.11 ± 0.06 %ID/g tissue
[6]
  tumor/blood ratio: 5.61
  tumor/muscle ratio: 6.86
  uptake Appendix: 0.13 ± 0.02 %ID/g tissue
  uptake Blood: 0.09 ± 0.04 %ID/g tissue
  uptake Heart: 0.08 ± 0.02 %ID/g tissue
  uptake Inguinal lymph nodes: 0.48 ± 0.14 %ID/g tissue
  uptake Intestines (empty): 0.42 ± 0.52 %ID/g tissue
  uptake Left kidney: 4.83 ± 0.90 %ID/g tissue
  uptake Liver: 0.18 ± 0.07 %ID/g tissue
  uptake Lung: 0.17 ±0.06 %ID/g tissue
  uptake Muscle: 0.07 ± 0.01 %ID/g tissue
  uptake Pancreas: 0.07 ±0.01 %ID/g tissue
  uptake Right kidney: 4.76 ± 0.89 %ID/g tissue
  uptake Spleen: 0.06 ± 0.02 %ID/g tissue
  uptake Stomach (empty): 0.82 ± 0.64 %ID/g tissue
  uptake Tumor: 0.48 ± 0.14 %ID/g tissue
[6]; [10]
  uptake Appendix: 0.07 ± 0.01 %ID/g tissue
  uptake Blood: 0.06 ± 0.04 %ID/g tissue
  uptake Heart: 0.04 ± 0.02 %ID/g tissue
  uptake Inguinal lymph nodes: 0.04 ± 0.02 %ID/g tissue
  uptake Intestines (empty): 0.56 ± 0.81 %ID/g tissue
  uptake Left kidney: 0.30 ± 0.04 %ID/g tissue
  uptake Liver: 0.14 ± 0.06 %ID/g tissue
  uptake Lung: 0.13 ± 0.05 %ID/g tissue
  uptake Muscle: 0.02 ± 0.01 %ID/g tissue
  uptake Pancreas: 0.03 ± 0.02 %ID/g tissue
  uptake Right kidney: 0.30 ± 0.02 %ID/g tissue
  uptake Spleen: 0.05 ± 0.03 %ID/g tissue
  uptake Stomach (empty): 0.22 ± 0.09 %ID/g tissue
  uptake Tumor: 0.09 ± 0.04 %ID/g tissue
[6]; liver including gallbladder
  tumor/liver ratio: 2.58
[6]; preinjection of excess native folic acid
  reduction of activity in the tumor in the blocked group: 81%
[7]; PET
  uptake in the bones (in vivo defluorination): Negligible uptake
[7]; static scan 50-60 min p.i.
  visualization of KB tumors in maximum intensity projection (MIP) PET images: impeded
[8]
  logD7.4 Value: 0.6 ± 0.07 [18]
